Test results: patent US20010034039A1, “Bioluminescent organism for detecting toxic substances” (priority 2000, published 2001)
Values after ≈ are worked out from the molar mass of the structure shown. Like-named read-outs stand apart in the source and are kept apart here.

Experiments:
[1] = tested on: oceanic luminescent bacterium (Vibrio sp. Isolate); assay: microbe, parasite or virus in culture; format: cell-based; settings: read-out: EC50 (decrease luminescence by 50%)
[2] = tested on: YH9-RC deposited under KCTC 0730BP; assay: microbe, parasite or virus in culture; format: cell-based; settings: Janthinobacterium lividum, read-out: EC50 (decrease luminescence by 50%)
Protocol: Toxicity tests for a variety of substances described in the following Table 2 were conducted using YH9-RC deposited under KCTC 0730BP obtained in the Example 1 to calculate EC50 (Effective concentration 50: the effective concentration of tested organism that decrease luminescence by 50%). It was compared with the EC50 value using oceanic luminescent bacterium (Vibrio sp. Isolate) that was most commonly used in a conventional toxicity test. First, the YH9-RC colony was cultured in an R2A broth containing 5 μg/ml of tetracycline (liquid culture medium containing Bacto yeast extract 0.5 wt %, Bacto proteose peptone No. 3 0.5 wt %, Bacto casamino acids 0.5 wt %, Bacto dextrose 0.5 wt %, soluble starch 0.5 wt %, sodium pyruvate 0.5 wt %, potassium phosphate dibasic 0.5 wt %, and magnesium sulfate 0.5 wt %) for 18 hours or more, and then it was sub-cultured in an R2A broth for another 7 to 8 hours, and the aliquot of the fresh culture was used in the toxicity test. In addition, 80 μl of the cell culture liquid, 80 μl of 0.03 wt % aldehyde aqueous solution, and 40 μl of a toxic sample diluted to various concentrations were mixed in a test tube of a luminometer, […]

YH-9 = settings: YH9 strain
Excerpt: Then, the YH9 was transformed, and luminescent genes were introduced therein.

c1ccccc1 [Benzene]
EC50 ([1]; 5 min): 478 µg/mL (≈ 6120 µM)
EC50 ([1]; 10 min): 607 µg/mL (≈ 7770 µM)
EC50 ([1]; 0.25 h): 747 µg/mL (≈ 9570 µM)
EC50 ([2]; 5 min): 75.2 µg/mL (≈ 962 µM)
EC50 ([2]; 10 min): 50.9 µg/mL (≈ 652 µM)
EC50 ([2]; 0.25 h): 35.1 µg/mL (≈ 449 µM)

Oc1ccccc1 [Phenol]
EC50 ([1]; 5 min): 116 µg/mL (≈ 1230 µM)
EC50 ([1]; 10 min): 105 µg/mL (≈ 1120 µM)
EC50 ([1]; 0.25 h): 63.1 µg/mL (≈ 670 µM)
EC50 ([2]; 5 min): 26.5 µg/mL (≈ 282 µM)
EC50 ([2]; 10 min): 12 µg/mL (≈ 128 µM)
EC50 ([2]; 0.25 h): 12.7 µg/mL (≈ 135 µM)
MIC for phenol among various Gram-negative isolates (YH-9): lowest MIC

Cc1ccccc1 [Toluene]
EC50 ([1]; 5 min): 87.1 µg/mL (≈ 945 µM)
EC50 ([1]; 10 min): 120 µg/mL (≈ 1300 µM)
EC50 ([1]; 0.25 h, 15 minutes): 142 µg/mL (≈ 1540 µM)
EC50 ([2]; 5 min, YH9-RC, 5 minutes): 5.61 µg/mL (≈ 60.9 µM)
EC50 ([2]; 10 min, YH9-RC, 10 minutes): 5.65 µg/mL (≈ 61.3 µM)
EC50 ([2]; 0.25 h, YH9-RC, 15 minutes): 6.3 µg/mL (≈ 68.4 µM)

Cc1ccc(C)cc1 [p-xylene]
EC50 ([1]; 5 min): 27.4 µg/mL (≈ 258 µM)
EC50 ([1]; 10 min): 105 µg/mL (≈ 990 µM)
EC50 ([1]; 0.25 h, 15 minutes): 63.1 µg/mL (≈ 594 µM)
EC50 ([2]; 5 min, YH9-RC, 5 minutes): 45.3 µg/mL (≈ 427 µM)
EC50 ([2]; 10 min, YH9-RC, 10 minutes): 37.7 µg/mL (≈ 355 µM)
EC50 ([2]; 0.25 h, YH9-RC, 15 minutes): 49.8 µg/mL (≈ 469 µM)
